Consider four molecules from ChEMBL document CHEMBL1629537, “Non-natural macrocyclic inhibitors of histone deacetylases: design, synthesis, and activity” (J Med Chem, 2010).

Test [1] deals with T1, Histone deacetylase 11 (Homo sapiens, UniProt Q96DB2).
T1 sequence (Q96DB2 whole entry): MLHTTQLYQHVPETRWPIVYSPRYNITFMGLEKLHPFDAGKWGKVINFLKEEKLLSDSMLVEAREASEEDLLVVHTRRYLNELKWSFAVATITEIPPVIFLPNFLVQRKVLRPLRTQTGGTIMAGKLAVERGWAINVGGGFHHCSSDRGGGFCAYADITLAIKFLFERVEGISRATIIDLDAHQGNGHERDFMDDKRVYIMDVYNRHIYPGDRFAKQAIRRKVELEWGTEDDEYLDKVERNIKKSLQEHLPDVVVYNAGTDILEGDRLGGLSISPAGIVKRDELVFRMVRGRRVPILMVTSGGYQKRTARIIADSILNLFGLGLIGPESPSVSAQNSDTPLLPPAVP
In words: Inhibition of human HDAC11 by fluorimetric assay.

Test [2] has as its target T2, Polyamine deacetylase HDAC10 (Homo sapiens, UniProt Q969S8).
T2 sequence (Q969S8 whole entry): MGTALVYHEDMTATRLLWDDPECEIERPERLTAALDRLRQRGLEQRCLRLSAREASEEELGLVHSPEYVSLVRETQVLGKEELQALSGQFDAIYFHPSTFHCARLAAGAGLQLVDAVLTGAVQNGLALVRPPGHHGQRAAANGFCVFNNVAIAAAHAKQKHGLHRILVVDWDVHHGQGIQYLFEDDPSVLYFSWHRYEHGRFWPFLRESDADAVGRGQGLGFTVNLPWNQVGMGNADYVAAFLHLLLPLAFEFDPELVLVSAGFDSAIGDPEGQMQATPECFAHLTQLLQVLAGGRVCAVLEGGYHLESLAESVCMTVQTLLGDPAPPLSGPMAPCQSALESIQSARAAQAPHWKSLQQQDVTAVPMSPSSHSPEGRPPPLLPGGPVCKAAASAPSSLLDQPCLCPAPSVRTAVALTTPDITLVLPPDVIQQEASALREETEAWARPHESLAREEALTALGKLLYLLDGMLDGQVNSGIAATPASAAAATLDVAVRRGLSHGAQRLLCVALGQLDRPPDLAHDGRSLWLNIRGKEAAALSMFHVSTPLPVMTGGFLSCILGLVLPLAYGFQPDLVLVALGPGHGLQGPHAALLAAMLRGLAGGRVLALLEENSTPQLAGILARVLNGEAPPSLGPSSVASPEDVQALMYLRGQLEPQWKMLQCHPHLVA
In words: Inhibition of human HDAC10 by fluorimetric assay.

The IC50 is the point on the concentration scale where inhibition reaches its midpoint. On to `COc1cc2cc(c1)COc1ccccc1NC(=O)[C@H](CCCCCC(=O)NO)OC/C=C\2`, for which the IC50 turned out to be 22.9 nM in test [1] and 62.5 nM in test [2].
The like results for `COc1cc2cc(c1)COc1ccccc1NC(=O)[C@@H](CCCCCC(=O)NO)OC/C=C\2` were, in that order, 97.1 nM and 152 nM.
The like results for `O=C(CCCCCC1OCCCCCOc2ccccc2NC1=O)NO` (racemic) were, in that order, 1210 nM and 1530 nM.
The like results for `COc1cc2cc(c1)COc1ccccc1NC(=O)C(CCCCCC(=O)NO)OC/C=C\2` (racemic) were, in that order, 57.7 nM and 70.7 nM.
